{"source": "paper PMC10574143", "about": "“Exploring the Solubility Limits of Edaravone in Neat Solvents and Binary Mixtures: Experimental and Machine Learning Study” (Molecules, 2023)", "experiment": "solubility data curation, three-parameter van't Hoff consensus", "type": "physicochemical", "details": "methanol, van't Hoff fit to data of refs 21, 26", "from_the_text": "The dataset characterizing edaravone solubility is an accumulation of values collected from available literature sources augmented with a series of new measurements reported in this paper, which are summarized in Supplementary Section S1. There are three accounts documenting the temperature-dependent solubility of the titled compound in fifteen neat solvents including alcohols, esters, some aprotic solvents, and water. Moreover, nine binary solvent mixtures were used for EDA dissolution measurements at a range of temperatures with a variety of binary compositions. […] First of all, one can notice serious divergences in the reported solubility values for some systems. This inconsistency prohibits the direct use of such a collection for the training of models due to the inherent noise in the dataset, which is a frequently occurring problem intrinsic to diverse measurement protocols. […] Secondly, the solubility space is not represented uniformly due to different numbers of measurements for dissimilar temperature ranges and concentrations of solvent mixtures, which might overrepresent those systems studied more extensively in the dataset. Finally, the main focus in solubility determination was narrowed to polar protic solvents, with very limited representation of non-protic or diprotic solvents. To address the first two issues, the final collection was cured using commonly accepted model equations by fitting their parameters based on experimental mole fractions. Here, the three-parameter van’t Hoff and Jouyban–Acree equations were used for neat and binary solvents, respectively. In addition, temperature standardization was performed for a uniform representation of solubility in the final dataset. […] The complete list of experimental solubility data is provided in the Supporting Materials (see Section S2). As can be directly inferred from the plots presented in Figure 1, incongruences appear not only in the solubility values but also in their temperature trends. […] Since only an arbitrary decision would allow the rejection of either of the measurement series, the final solubility dataset was constructed based on the predictions of the van’t Hoff equation, parametrized using all available experimental data. Moreover, temperature normalization was adopted by accepting data between 0 °C and 50 °C with 5 °C intervals. […] Fortunately, the majority of saturated EDA systems studied suffered experimentally from much smaller deviations, as detailed in the Supplementary Materials (see Section S2.1), and the ones presented in Figure 1 show the worst extremes.\nThe datasets used for model development underwent curing and unification. All solubility data in neat solvents were analyzed using a simple thermodynamic model relying on the fundamental van’t Hoff equation extended for the temperature dependence of the equilibrium constant by a polynomial fit. The following equation (1) lnxEcur=A+B/T+C/T^2 has three adjustable parameters, the values of which were computed by minimizing root mean square deviations (RMSD) between experimental and computed values. The collection of obtained parameter values for all analyzed systems (including literature data), along with graphical illustrations, is provided in the Supplementary Materials (see Section S2, Table S3 and Figure S2)."}
{"smiles": "CC1=NN(c2ccccc2)C(=O)C1", "note": "[Edaravone, 5-methyl-2-phenyl-4H-pyrazol-3-one]", "values": [{"measurement": "log(x1consensus)", "setting": "x2*=1.00, 0 °C", "result": -1.93}, {"measurement": "log(x1consensus)", "setting": "x2*=1.00, 5 °C", "result": -1.87}, {"measurement": "log(x1consensus)", "setting": "x2*=1.00, 10 °C", "result": -1.80}, {"measurement": "log(x1consensus)", "setting": "x2*=1.00, 15 °C", "result": -1.73}, {"measurement": "log(x1consensus)", "setting": "x2*=1.00, 20 °C", "result": -1.66}]}
